A short description of series [1]: In vivo pharmacokinetics in plasma after oral gavage. Conditions: mouse, male CD-1 mice. Here is the method: The purpose of this study is to determine the pharmacokinetics of the tested compounds in plasma, following oral gavage administration (PO) to male CD-1 mice.
Animal Husbandry: Animals were group housed during acclimation and the study. The animal room environment were controlled (target conditions: temperature 18 to 26° C., relative humidity 30 to 70%, 12 hours artificial light and 12 hours dark). Temperature and relative humidity were monitored daily. Animals were fasted at least 12 hours prior to the administration. All animals had access to Certified Rodent Diet ad libitum 4 hours post dosing.
Dose Formulation: prepared 85-100 μL of a stock solution of representative compounds of the disclosure in DMSO at 50 mM; 1.5% v/v of Tween 80 were added and mixed gently; 95.5% v/v saline was added gently to the organic phase. The solution was mixed slowly by reverse pipetting to get a clear solution.
Dose Administration: the dose formulations were administered via oral gavage per facility SOPs. The dose volume were determined by the animals' body weight collected on the morning of dosing day
Sample Collection: blood collection (about 0.05 mL per time point) was performed from saphenous vein of each animal into polypropylene tubes at each timepoints (0, 0.25, 0.5, 1, 2, 4, 8, 12, and 24 hr). All blood samples were transferred into pre-chilled tubes containing 2 μL of K2-EDTA (0.5M) and placed on wet ice until centrifugation. Each collected blood sample was in the wet-ice before centrifugation. Each collected blood was under centrifugation for 15 minutes at 4° C. and 3000 g for plasma collection. Plasma samples were stored in polypropylene tubes, quickly frozen over dry ice and kept at −70±10° C. until LC/MS/MS analysis.
Bioanalytical analysis: A LC-MS/MS method for the quantitative determination of tested compound in biological matrix were developed under non-GLP compliance. A calibration curve with at least 7 non-zero calibration standards were applied for the method including LLOQ.
Plasma concentration versus time data were analyzed by non-compartmental approaches using the Phoenix WinNonlin 6.3 software program. Cl, Vdss, C0, Cmax, Tmax, T½, AUC(0-t), AUC(0-inf), MRT(0-t), MRT(0-inf), % F (oral availability) and graphs of plasma concentration versus time profile were reported.

The subject of series [2] is androgen responsive genes in VCaP cells. Nature of the series: mRNA expression of androgen responsive genes in VCaP cells (RNAseq). The class given is cell-based. Here is the method:
Relative mRNA expression in VCaP was measured to assess response of Compound A, enzalutamide (Enza), apalutamide (Apa), or darolutamide (Daro) alone or Compound A in combination with Enza, Apa, or Daro, in androgen responsive genes.

In series [3] the test system is androgen responsive genes in LNCaP cells. The series is described as follows: mRNA expression of androgen responsive genes in LNCaP cells (NanoString AR/Prostate Cancer gene panel).
Where [4] appears, read: Compound A in plasma, single PO dose 60.00 mg/kg, single agent or with enzalutamide.
Where [5] appears, read: enzalutamide in plasma, single PO dose 15.0 mg/kg, single agent or with Compound A.

Consider `CC(C)(c1ccc(OCc2ccnc(NS(C)(=O)=O)n2)cc1)c1cc(Cl)c(OCCCl)c(C#N)c1` [Compound A, N-(4-((4-(2-(3-chloro-4-(2-chloroethoxy)-5-cyanophenyl)propan-2-yl)phenoxy)methyl)pyrimidin-2-yl)methanesulfonamide], for which, in series [1] (setting [4]), the AUC(0-t) (usually the area under the concentration-time curve up to a stated or last time point) worked out at 483 µg·h/mL; the Cmax (commonly the maximum level reached in the sampled fluid or tissue) came to 41700 ng/mL; the Tmax – broadly, the time from dosing to the highest level – amounted to 4 h. The half-life in series [1] (Compound A in plasma, single PO dose 60.00 mg/kg, single agent or with enzalutamide, read-out: T½ (converted)) is 5.4 h. Besides, in series [2] (Compound A at 10 μM in combination with the 'lutamides (FIGS. 11A, 11B)), the “inhibition of canonical AR dependent genes” value was “superior inhibition of responsive genes”. In series [2] (Compound A at 10 μM with Enza, Apa or Daro, R1881 stimulation (FIG. 10)), the “synergy on androgen responsive gene expression” value is “can synergize with Enza, Apa, and Daro”. Moreover, the “Relative mRNA expression of androgen response genes FKBP5, TMPRSS2, KLK2, KLK3, and NKX3.1” value in series [3] (LNCaP cells (FIG. 6A)) is given as “dose-dependent response”. In series [3] (LNCaP, 7.5 μM), the “Log2Fold Change ERRFl1” value was −2.76 and the “Log2Fold Change SNAl2” value is reported as −1.79.

As to `CNC(=O)c1ccc(N2C(=S)N(c3ccc(C#N)c(C(F)(F)F)c3)C(=O)C2(C)C)cc1F` [Enzalutamide, enzalutamide, reference compound], in series [1] (setting [5]), the AUC(0-t) was 388 µg·h/mL, the Cmax turned out to be 21100 ng/mL and the Tmax stood at 9 h. Also, in series [3] (LNCaP, 7.5 μM), the “Log2Fold Change CDC6” value is given as −1.20, the “Log2Fold Change ERRFl1” value was −4.51 and the “Log2Fold Change SNAl2” value is listed as −3.97.

The values above are taken from patent US20220105093A1, “PHARMACEUTICAL COMPOSITIONS AND COMBINATIONS COMPRISING INHIBITORS OF THE ANDROGEN RECEPTOR AND USES THEREOF” (ESSA Pharma, Inc., priority 2020, published 2022).
